The record followed here is doi:10.1101/2021.06.15.448479v1 (biorxiv, 2021).

First the molecules themselves.
B1: ACER3 (Homo sapiens) (protein)
chain: MAPAADREGYWGPTTSTLDWCEENYSVTWYIAEFWNTVSNLIMIIPPMFGAVQSVRDGLEKRYIASYLALTVVGMGSWCFHMTLKYEMQLLDELPMIYSCCIFVYCMFECFKIKNSVNYHLLFTLVLFSLIVTTVYLKVKEPIFHQVMYGMLVFTLVLRSIYIVTWVYPWLRGLGYTSLGIFLLGFLFWNIDNIFCESLRNFRKKVPPIIGITTQFHAWWHILTGLGSYLHILFSLYTRTLYLRYRPKVKFLFGIWPVILFEPLRKH

For one data set, the target named is T1, ACER3 (Homo sapiens, UniProt Q9NUN7).
T1 sequence (Q9NUN7 1-267): B1 chain
Nature of the data set: FRETcer1 hydrolysis, FRET, crude membranes of overexpressing Sf9 cells. It counts as cell-based.
Conditions: not given
Regarding `CCCC(C)NC(=O)c1ccc(Cl)c(Cl)c1` (stereo not shown) [NSC405020], the IC50 was 5290 ± 2160 nM.

In turn, `Cc1noc(CCNC(=O)N2CCC(c3ccc(F)c(F)c3)CC2)n1` [Z1124621112] yielded an IC50 of 1310 ± 950 nM.

`O=C(Nc1cnn(C2CCC2)c1)N1CCC(c2cccc(F)c2)CC1` [Z2956776388] yielded an IC50 of 1040 ± 350 nM. On the same count and under the same terms, to `CCCCNC(=O)Cc1noc(C(C)c2cccc(O)c2)n1` (stereo not shown) [Z3016340412] belongs 1210 ± 740 nM.

Substrate in a further data set: Cc1c(Br)c(=O)oc2cc3c(cc12)OC(CC(=O)NCCCCCC(=O)N[C@@H](CO)[C@H](O)/C=C/CCCCCCCCCNc1ccc([N+](=O)[O-])c2nonc12)O3
In words: cells, lysate or membranes. To be noted: detergent-purified ACER3.
In the case of B1, the Km was 10.76 ± 2.03 µM.

The next data set addresses T1, ACER3. In words: biochemical.
Conditions: not given
For the molecule `CCCCC/C=C\C/C=C\CCCCCCCC(=O)O` [linoleic acid], the IC50 amounted to 1500 nM. On the same count and under the same terms, the figure for `CCCCCCCCCCCCCC(=O)O` [myristic acid] is 9300 nM; for `CCCCCCCC/C=C\CCCCCCCC(=O)O` [oleic acid] it is 2300 nM; for `CCCCCCCCCCCCCCCC(=O)O` [palmitic acid] it is 12600 nM. The same measure, in the same setting: the figure for `CCCCCC/C=C\CCCCCCCC(=O)O` [palmitoleic acid] is 1900 nM; for `CCCCCCCCCCCCCCCCCC(=O)O` [stearic acid] it is 29300 nM.

The target of a further data set is T1, ACER3. Nature of the data set: FRETcer1 hydrolysis, FRET, crude membranes of overexpressing Sf9 cells.
Conditions: not given
It is filed as biochemical. The source holds these as a separate data set.
For the molecule `CCCC(C)C(=O)Nc1ccc(Cl)c(C(F)(F)F)c1` (stereo not shown) [compound 02, Compound 02], the IC50 amounted to 700 nM. `CC(C)[C@H]1CC[C@H](C(=O)Nc2ccc(Cl)c(Cl)c2)CC1` [compound 03, N-(3,4-dichlorophenyl)-4-isopropylcyclohexane-1-carboxamide] gave an IC50 of 710 nM.

By IC50 is commonly meant the concentration at which inhibition is half-maximal. Usually Km stands for the concentration of substrate that gives half-maximal velocity.
